Results from US20220362184A1, “GUT-PROTECTIVE COMPOSITIONS COMPRISING BOSWELLIC ACID” (INVENTIA HEALTHCARE LIMITED, priority 2019, published 2022).

Legend:
[1] = system: Dextran Sodium Sulphate (2.5% w/v) induced colitis in BALB/c mice; assay: Dextran Sodium Sulphate induced colitis, gut-protective effect; format: in vivo
Method: The compositions comprising boswellic acids are also evaluated for their gut-protective effect using Dextran Sodium Sulphate (2.5% w/v) induced colitis in BALB/c mice. Body weights of mice were recorded during study period, macroscopic examination was carried out for all terminal sacrificed, moribund and found dead animals. Colon and rectum were collected, and histopathology was performed. The composition comprising boswellic acid was also evaluated for gut-protective effect through antimicrobial activity against Helicobacter pylori strains using Micro-broth dilution method. The anti-bacterial minimum inhibitory concentration (MIC) was checked for the composition against Amoxycillin.
The gut-protective effect of composition comprising boswellic acids was evaluated using Dextran Sodium Sulphate (2.5% w/v) induced colitis in BALB/c mice. Dextran Sodium Sulphate (DSS) (36000 to 50000 Daltons molecular weight) was added in autoclaved drinking water and administered to the animals over 10 days for inducing disease condition. Group 2 served as disease control. Groups 3, 4 and 5 were treated with Test Item 1 (G3), Test Item 2 (G4) and Reference (Sulfasalazine—G5), respectively. Concurrent vehicle control group (G1) was also maintained.
Onset of colitis symptoms was monitored by measuring percent body weight, stool consistency (SC) and fecal occult blood (FOB). During the study period (10 days), Disease Activity Index (DAI) was calculated from scores of percent body weight, SC and FOB and were reported. Treatment was continued along with the DSS administration in drinking water up to 10 days by oral administration of Test and Reference Item as follows: • Group 1—Normal control (no DSS & no treatment) • Group 2—Disease control (only DSS, no treatment) • Group 3—DSS+Boswellic acid composition of Example 2: 41 mg/kg • Group 4—DSS+Boswellic acid composition of Example 4: 41 mg/kg • Group 5—DSS+Sulfasalazine: 30 mg/kg
Body weights were recorded daily throughout the study period. Macroscopic examination was carried out for all the terminal sacrificed, moribund and found dead animals. Colon and rectum were collected, and histopathology was performed.

[2] = system: Helicobacter pylori strains; assay: Micro-broth dilution antimicrobial activity (MIC, CLSI); format: cell-based; settings: growth inhibited >90% compared to growth control
Method: Micro-broth dilution method was used to determine the antimicrobial activity of boswellic acid composition against Helicobacter pylori strains. The anti-bacterial minimum inhibitory concentration (MIC) study was performed as per the Clinical and Laboratory Standards Institute (CLSI) guidelines.
The test compound (composition comprising boswellic acid) was dissolved using Methanol to a concentration of 12.8 mg/mL (stock). Amoxicillin was dissolved in sterile Phosphate buffer to a concentration of 2 mg/mL.

Compound | percentage of mortality during the study period ([1]; 10 days oral with DSS, compositions 41 mg/kg, sulfasalazine 30 mg/kg) [%] | % body weight change ([1]; Day 10, disease control −20.34%, vehicle control −0.44%) [%] | Mean Disease Activity Index (DAI) ([1]; females, Day 10, disease control 3.9) | Mean Disease Activity Index (DAI) ([1]; males, Day 10, disease control 3.1) | MIC [2] [µg/mL]
O=C(O)c1cc(/N=N/c2ccc(S(=O)(=O)Nc3ccccn3)cc2)ccc1O [Sulfasalazine] | 20 | −17.77 | 3.2 | 3.6 | –
CC1(C)S[C@@H]2[C@H](NC(=O)[C@H](N)c3ccc(O)cc3)C(=O)N2[C@H]1C(=O)O [Amoxicillin] | – | – | – | – | < 0.25
